Reference: article PMC10279527, “Structural basis of metabolite transport by the chloroplast outer envelope channel OEP21” (Nature Structural & Molecular Biology, 2023)
Where “and” joins values, the source holds several entries; their conditions need not be identical. Equal values may be shown once. Read-outs that look alike come from different tables or passages of the source.

Columns and labels:
[1] = molecular target: T1, OEP21 wt (Pisum sativum, UniProt Q9SM57); test: NMR titrations (2D-[15N,1H]-TROSY) of OEP21 with metabolites; type: binding, garden pea
T1 construct: made in house

[2] = molecular target: T2, OEP21ΔL5 (Pisum sativum, UniProt Q9SM57, DEL70-80); test: NMR titrations of OEP21ΔL5 with metabolites; type: binding, garden pea; settings: for Kd: KDs dLoop + GAP, dLoop (OEP21ΔL5), unit inferred
T2 construct: made in house; host or cells: Escherichia coli BL21(DE3) (described for OEP21)

[3] = molecular target: OEP21 (Pisum sativum, UniProt Q9SM57); test: Trypsin cleavage of recombinant OEP21 in liposomes; parameters: made in house; species or system garden pea; settings: 10 µM OEP21 in liposomes; 5 mM metabolite
Method: Sample aliquots were quenched by addition of 1 mM PMSF at the indicated time points and were analyzed by SDS–PAGE.

[4] = molecular target: T3, OEP21 variants (single point mutations, ΔL5) (Pisum sativum, UniProt Q9SM57, C109A); test: Fluorescence polarization binding of MANT-ATP to OEP21 variants; parameters: species or system garden pea; settings: OEP21 variant C109A; for Kd: unit inferred;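 for all read-outs here: KD obtained by fitting fluorescence polarization data to a one-site binding model, each experiment run in triplicate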
T3 construct: made in house; host or cells: Escherichia coli BL21(DE3) (described for OEP21)

[5] = molecular target: T4, OEP21 variants (single point mutations, ΔL5) (Pisum sativum, UniProt Q9SM57, K104A); test: as above; parameters: species or system garden pea; settings: OEP21 variant K104A; for Kd: unit inferred
T4 construct: made in house; host or cells: Escherichia coli BL21(DE3) (described for OEP21)

[6] = molecular target: T5, OEP21 variants (single point mutations, ΔL5) (Pisum sativum, UniProt Q9SM57, K90A); test: as above; parameters: species or system garden pea; settings: OEP21 variant K90A; for Kd: unit inferred
T5 construct: made in house; host or cells: Escherichia coli BL21(DE3) (described for OEP21)

[7] = molecular target: T6, OEP21 variants (single point mutations, ΔL5) (Pisum sativum, UniProt Q9SM57, R140A); test: as above; parameters: species or system garden pea; settings: OEP21 variant R140A; for Kd: unit inferred
T6 construct: made in house; host or cells: Escherichia coli BL21(DE3) (described for OEP21)

[8] = molecular target: T7, OEP21 variants (single point mutations, ΔL5) (Pisum sativum, UniProt Q9SM57, R51A); test: as above; parameters: species or system garden pea; settings: OEP21 variant R51A, unit inferred
T7 construct: made in house; host or cells: Escherichia coli BL21(DE3) (described for OEP21)

[9] = molecular target: OEP21 variants (single point mutations, ΔL5); test: as above; parameters: species or system garden pea; settings: OEP21 variant dL5; for Kd: unit inferred
[10] = individual determinations, read-out: KD1-KD3

**Q.** `O=C[C@H](O)COP(=O)(O)O` [GAP, D-glyceraldehyde-3-phosphate] was tested. Which Kd ([1]; KD GAP - Loop5, Loop5, individual KDs) did it give?
**A.** 2700 µM and 4360 µM and 2480 µM

**Q.** And the Kd ([1]; KD GAP - Loop5, Mean, Loop5, mean)?
**A.** 3180 µM

**Q.** What about the Kd ([1]; KD, NMR, Fig. 3b) of the same compound?
**A.** ~150 µM

**Q.** What about the Kd ([1]; KDs GAP+Mg, Mean, with Mg, mean) of the same compound?
**A.** 709 µM

**Q.** What about the Kd ([1]; KDs GAP+Mg, with Mg, individual KDs) of the same compound?
**A.** 310 µM and 690 µM and 450 µM and 960 µM and 920 µM and 1170 µM and 470 µM and 980 µM and 750 µM and 710 µM and 670 µM

**Q.** What about the Kd ([1]; KDs OEP21wt + GAP, Mean, OEP21wt, mean, unit inferred) of the same compound?
**A.** 152 µM

**Q.** What about the Kd ([1]; KDs OEP21wt + GAP, OEP21wt, individual KDs, unit inferred) of the same compound?
**A.** 154 µM and 180 µM and 186 µM and 146 µM and 177 µM and 143 µM and 138 µM and 137 µM and 127 µM and 149 µM

**Q.** And the “effect of Mg^2+ on binding affinity (in words)” value ([1]; NMR, Fig. 3h, addition of Mg^2+)?
**A.** decreased the binding affinity to a similar extent

**Q.** What about the Kd ([1]; affinity of residues in L5, NMR, Fig. 3h) of the same compound?
**A.** ~3000 µM

**Q.** And the “fold increase in Kd” value ([1]; individual determinations KD1-KD12, relative to ATP pH7)?
**A.** 18.8725 and 22.0588 and 22.7941 and 17.8922 and 21.6912 and 17.5245 and 16.9118 and 16.7892 and 15.5637 and 18.2598

**Q.** What about the “fold increase in Kd, mean values” ([1]; mean, relative to ATP pH7) of the same compound?
**A.** 18.7

**Q.** And the Kd ([2]; Mean, mean)?
**A.** 730 µM

**Q.** And the Kd ([2]; individual KDs)?
**A.** 702 µM and 649 µM and 747 µM and 728 µM and 616 µM and 657 µM and 634 µM and 730 µM and 906 µM and 897 µM and 764 µM

**Q.** And the “effect of L5 on binding affinity (in words)” value ([2]; NMR, Fig. 3h, OEP21 versus OEP21ΔL5)?
**A.** approximately a fourfold increase in binding affinity

**Q.** And the “effect on trypsin digestion of L5 (in words)” value [3]?
**A.** slightly protected L5 from proteolytic digestion

**Q.** What does the source list for “2′-(or-3′)-O-(N-methylanthraniloyl) adenosine 5′-triphosphate [Mant-ATP]”?
**A.** Kd [4, 10]: 0.19 µM and 0.22 µM and 0.213 µM; rel KD1-KD3 ([4]; relative to mean KD of wt): 1.044 and 1.209 and 1.17; Kd ([4]; read-out: mean KD): 0.208 µM; Kd [5, 10]: 0.209 µM and 0.297 µM and 0.203 µM; rel KD1-KD3 ([5]; relative to mean KD of wt): 1.148 and 1.632 and 1.115; Kd ([5]; read-out: mean KD): 0.236 µM; Kd [6, 10]: 0.293 µM and 0.271 µM and 0.247 µM; rel KD1-KD3 ([6]; relative to mean KD of wt): 1.61 and 1.489 and 1.357; Kd ([6]; read-out: mean KD): 0.27 µM; Kd [7, 10]: 0.233 µM and 0.286 µM and 0.307 µM; rel KD1-KD3 ([7]; relative to mean KD of wt): 1.28 and 1.571 and 1.687; Kd ([7]; read-out: mean KD): 0.275 µM; Kd [8, 10]: 0.142 µM and 0.101 µM and 0.206 µM; Kd ([8]; read-out: mean KD): 0.15 µM; Kd [9, 10]: 0.214 µM and 0.204 µM and 0.297 µM; rel KD1-KD3 ([9]; relative to mean KD of wt): 1.176 and 1.121 and 1.632; Kd ([9]; read-out: mean KD): 0.238 µM
